# According to patent US20030206968A1, “Fungicidal mixtures” (priority 1999, published 2003):
# Tests used:
# Assay type in all cases: in vivo
# Leptosphaeria nodorum = assay: Greenhouse, Leptosphaeria nodorum on wheat, 3 day residual
# Method: (§1) The trials are carried out under greenhouse (Examples 1 to 32) or field conditions (Examples 33 to 40) in residual or curative applications. The fungicides are applied in single treatments, or in a combination comprising an azolopyrimidine of formula I and a compound selected from the classes (A), (B) and (C) as defined above. The compounds are applied in form of an aqueous spray mix obtained from a concentrated formulation or the technical material.
# (§2) 1. Seed is planted in 6 cm diameter plastic pots and maintained in the greenhouse.
# (§3) 2. When the primary leaf is fully expanded in the case of cereals or several leaves are present in the case of dicots, formulated test compounds are sprayed with a three nozzle overhead fungicide sprayer to near run-off. Alternatively, a single nozzle overhead track sprayer is used for application of the compounds to cereals at a rate of 200 l/ha. Plants are then allowed to air-dry.
# (§4) 3. Inoculation precedes treatment in the case of curative evaluations and follows treatment in case of residual evaluations. For inoculation of powdery mildew disease, plants are set up on greenhouse benches with bottom watering mats and inoculated by dusting them with conidia from infected plants. Between inoculation and treatment for curative evaluations and between treatment and inoculation for residual evaluations, plants are maintained in the greenhouse with bottom watering.
# (§5) For inoculation of non-powdery mildew diseases, an aqueous spore suspension of the pathogen is applied to the plant and the plants are kept 1-2 days in a moist infection chamber before being returned to the greenhouse where they are maintained by bottom watering.
# (§6) 4. Disease on the foliage as percent leaf area with disease symptoms/signs is evaluated about 7 days after inoculation. In the case of wheat, the tips and bases of the leaves are excluded from the evaluation. [formula]
# (§7) 1. Technical compounds are formulated in a solvent/surfactant system consisting of 5% acetone and 0.05% Tween 20 in deionized water. Compounds are dissolved in acetone prior to addition of the water; the Tween 20 can be added through either the acetone or the water. Dilutions are made using the solvent/surfactant system. Formulated compounds are prepared using deionized water.
# (§8) 2. Two kinds of controls are included: Plants treated with the solvent/surfactant solution and inoculated (Solvent Blank). Untreated plants which are inoculated (Inoculated Control).
# (§9) Assessments of the diseases took place at the indicated day after the application of the compounds. Per cent infected leaf area infected was evaluated. The efficacy of the compounds/compounds mixtures to control the diseases was calculated by using the formula given above under item 4: […]
# (§10) Synergy was calculated using the % disease control values of specific treatments for the two COLBY formula given hereinabove
# Fungicidal efficacy of the mixture of Azolopyrimidine A+fenpropimorph (3 day residual) against Leptosphaeria nodorum on wheat The tank mix was obtained from technical material of Azolopyrimidine A and an EC formulation containing 750 g fenpropimorph per liter.
# Fungicidal efficacy of the mixture of Azolopyrimidine A+tebuconazole (3 day residual) against Leptosphaeria nodorum on wheat The tank mix was obtained from technical material of Azolopyrimidine A and an EC formulation containing 250 g tebuconazole per liter.
# Septoria tritici = assay: Field test, Septoria tritici on wheat
# Method: as §1
# (§11) For the field study formulated Azolopyrimidine A, B or C and formulated compounds from the classes (A), (B) and (C) were used.
# as §9, §10
# (§12) The compounds are applied according to good agricultural practice in the form of an aqueous spray mix obtained from a concentrated formulation or the technical material at a rate of 400 l/ha. The disease control is evaluated according to the formula given for the greenhouse tests.
# Fungicidal efficacy of the mixture of Azolopyrimidine C+metconazole in the field against Septoria tritici on wheat The tank mix was obtained from an EC formulation containing 150 g Azolopyrimidine C per liter and a SL formulation containing 60 g metconazole per liter. The observed and expected efficacies with different rates are given in Table XXXIVa (19 days after application) and Table XXXIVb (25 days after application):
# Fungicidal efficacy of the mixture of (S)-Azolopyrimidine C+kresoxim methyl in the field against Septoria tritici on wheat The tank mix was obtained from a SC formulation containing 100 g (S)-Azolopyrimidine C per liter and a WG formulation containing 500 g kresoxim methyl per kg. The observed and expected efficacies with different rates are given in Tables XXXVa (7 days after application), XXXVb (22 days after application), XXXVc (34 days after application), and XXXVd (41 days after application):
# (§13) Fungicidal efficacy of the mixture of Azolopyrimidine A and different cereal fungicides the field against Septoria tritici on wheat 15 days after application The tank mix was obtained from an SC formulation containing 100 g Azolopyrimidine A per liter and commercially available formulations of metconazole, epoxiconazole or propiconazole, respectively.
# Blumeria graminis [1] = assay: Greenhouse, Blumeria graminis on wheat, 2 day residual; conditions: Example 3
# Method: as §1, §2, §3, §4, §6
# 1. […]
# as §9
# Synergy was calculated using the % disease control values of specific treatments for the two COLBY formula given hereinabove […]
# Botrytis cinerea = assay: Apple fruit Botrytis test, Botrytis cinerea on apple fruits, 3 day residual
# Method: 1. Apples (Malus X domestica Borkh.) variety Golden Delicious are disinfected by washing them briefly in 70% ethanol. After drying the apples are marked with four short equal-distant lines indicating the positions to be wounded.
# 2. Corresponding with the marks, four holes are poked around the apple equator with a pipette tip. 10 μl of the treatment solution are pipetted into each hole.
# 3. Three hours after application, 10 μl of a conidial suspension of Botrytis cinerea are pipetted into each. For incubation, the treated/inoculated apples are set up for five days.
# 4. Disease occurs as rotten apple tissue surrounding the inoculated wounds. The diameter of the rotten zone around each wound is measured.
# 1. Technical compounds are formulated in a solvent system consisting of 5% acetone and 0.05% Tween 20 in deionized water. Compounds are dissolved in acetone prior to dilution with water. Formulated compounds are prepared using deionized water.
# 2. Three kinds of controls are included:
# Assessments of the diseases took place at the indicated day after the application of the compounds. Per cent infected leaf area infected was evaluated. The efficacy of the compounds/compounds mixtures to control the diseases was calculated by using the formula: [formula]
# as §10
# Fungicidal efficacy of the mixture of Azolopyrimidine A+vinclozolin (3 day residual) against Botrytis cinerea on apple fruits The tank mix was obtained from technical material of Azolopyrimidine A and a WG formulation containing 500 g vinclozolin per kg.
# Fungicidal efficacy of the mixture of Azolopyrimidine A+cyprodinil (3 day residual) against Botrytis cinerea on apple fruits The tank mix was obtained from technical material of Azolopyrimidine A and a WG formulation containing 750 g cyprodinil per kg.
# Fungicidal efficacy of the mixture of Azolopyrimidine A+benomyl (3 day residual) against Botrytis cinerea on apple fruits The tank mix was obtained from technical material of Azolopyrimidine A and a WP formulation containing 500 g benomyl per kg.
# Puccinia recondita [2] = assay: Field test, Puccinia recondita on wheat; conditions: 50 days after application
# Method: as §1, §11, §9, §10, §12
# as §13, with “fungicides in” for “fungicides”, “Puccinia recondita” for “Septoria tritici”, “50” for “15”, “epoxiconazole, propiconazole” for “epoxiconazole”, “kresoxim methyl,” for “propiconazole,”
# Blumeria graminis [3] = assay: Field test, Blumeria graminis on wheat; conditions: 15 days after application
# Method: as §1, §11, §9, §10, §12
# (§14) Fungicidal efficacy of the mixture of (S)-Azolopyrimidine C+cyproconazole in the field against Blumeria graminis on wheat 17 days after application The tank mix was obtained from a SC formulation containing 100 g (S)-Azolopyrimidine C per liter and an EC formulation containing 60 g cyproconazole per liter.
# as §14, with “C+azoxystrobin” for “C+cyproconazole”, “a SC” for “an EC”, “250” for “60”, “azoxystrobin” for “cyproconazole”, “kg.” for “liter.”
# as §13, with “fungicides in” for “fungicides”, “Blumeria graminis” for “Septoria tritici”, “kresoxim methyl,” for “propiconazole,”
# Puccinia recondita [4] = assay: Greenhouse, Puccinia recondita on wheat, 1 day curative, plants sprayed twice, once with each compound; conditions: Example 12
# Method: as §1, §2, §3, §4, §5, §6, §7, §8, §9, §10
# Fungicidal efficacy of the mixture of Azolopyrimidine C+kresoxim methyl (1 day curative) against Puccinia recondita on wheat Plants sprayed twice, once with each compound. The tank mixes were obtained from a SC formulation containing 100 g Azolopyrimidine C per liter and a WG containing 500 g kresoxim methyl per kg.
# [5] = Azolopyrimidine A 125 g/ha alone
smiles,measurement,setting,value
"CC1CCN(c2c(-c3c(F)cccc3Cl)c(Cl)nc3ncnn23)CC1 [Azolopyrimidine A, 5-chloro-6-(2-chloro-6-fluorophenyl)-7-(4-methylpiperid-1-yl)-[1,2,4]triazolo[1,5-a]pyrimidine]",Observed Efficacy,"Leptosphaeria nodorum; Example 1, dose rate 10 ppm",35%
same,Observed Efficacy,"Leptosphaeria nodorum; Example 1, dose rate 100 ppm",40%
same,Observed Efficacy,"Leptosphaeria nodorum; Example 2, dose rate 100 ppm",40%
same,Observed Efficacy,"Septoria tritici; Azolopyrimidine A 125 g/ha alone, 15 days after application, field, wheat",63
same,Observed Efficacy,Blumeria graminis [1]; dose rate 10 ppm,14%
same,Observed Efficacy,"Botrytis cinerea; Example 4, dose rate 1 ppm",0%
same,Observed Efficacy,"Botrytis cinerea; Example 4, dose rate 10 ppm",33%
same,Observed Efficacy,"Botrytis cinerea; Example 5, dose rate 1 ppm",0%
same,Observed Efficacy,"Botrytis cinerea; Example 5, dose rate 10 ppm",33%
same,Observed Efficacy,"Botrytis cinerea; Example 6, dose rate 1 ppm",0%
same,Observed Efficacy,"Botrytis cinerea; Example 6, dose rate 10 ppm",0%
same,Observed Efficacy,"Botrytis cinerea; Example 7, dose rate 1 ppm",0%
same,Observed Efficacy,"Botrytis cinerea; Example 7, dose rate 10 ppm",25%
same,Observed Efficacy,Puccinia recondita [2]; [5],0
same,Observed Efficacy,Blumeria graminis [3]; [5],22
CC(C)(C)C(O)(CCc1ccc(Cl)cc1)Cn1cncn1 (stereo not drawn) [tebuconazole],Observed Efficacy,"Leptosphaeria nodorum; Example 2, dose rate 0.02 ppm",25%
same,Observed Efficacy,"Leptosphaeria nodorum; Example 2, dose rate 0.2 ppm",19%
same,Observed Efficacy,Blumeria graminis [1]; dose rate 0.02 ppm,2%
same,Observed Efficacy,Blumeria graminis [1]; dose rate 0.2 ppm,9%
CO/N=C(/C(=O)OC)c1ccccc1COc1ccccc1C [kresoxim methyl],Observed Efficacy,Puccinia recondita [4]; dose rate 25 g/ha,0%
same,Observed Efficacy,Puccinia recondita [4]; dose rate 50 g/ha,1%
same,Observed Efficacy,Puccinia recondita [4]; dose rate 100 g/ha,0%
same,Observed Efficacy,Puccinia recondita [4]; dose rate 200 g/ha,1%
same,Observed Efficacy,Puccinia recondita [4]; dose rate 400 g/ha,5%
same,Observed Efficacy,"Septoria tritici; Example 35, 7 days after application, dose rate 100 g/ha",40%
same,Observed Efficacy,"Septoria tritici; Example 35, 22 days after application, dose rate 100 g/ha",64%
same,Observed Efficacy,"Septoria tritici; Example 35, 34 days after application, dose rate 50 g/ha",44%
same,Observed Efficacy,"Septoria tritici; Example 35, 34 days after application, dose rate 100 g/ha",59%
same,Observed Efficacy,"Septoria tritici; kresoxim methyl 100 g/ha alone, 41 days after application, field, wheat",92
same,Observed Efficacy,Puccinia recondita [2]; kresoxim methyl 100 g/ha alone,0
same,Observed Efficacy,Blumeria graminis [3]; kresoxim methyl 100 g/ha alone,85
CCCC1COC(Cn2cncn2)(c2ccc(Cl)cc2Cl)O1 (stereo not drawn) [propiconazole],Observed Efficacy,"Septoria tritici; propiconazole 63 g/ha alone, 15 days after application, field, wheat",72
same,Observed Efficacy,Puccinia recondita [2]; propiconazole 63 g/ha alone,49
Fc1ccc([C@]2(Cn3cncn3)O[C@H]2c2ccccc2Cl)cc1 (racemic) [epoxiconazole],Observed Efficacy,"Septoria tritici; epoxiconazole 63 g/ha alone, 15 days after application, field, wheat",93
same,Observed Efficacy,Puccinia recondita [2]; epoxiconazole 63 g/ha alone,95
same,Observed Efficacy,Blumeria graminis [3]; epoxiconazole 63 g/ha alone,40
